ChEMBL document CHEMBL5338775, “Discovery of a Novel Class of PROTACs as Potent and Selective Estrogen Receptor α Degraders to Overcome Endocrine-Resistant Breast Cancer In Vitro and In Vivo” (J Med Chem, 2023)
Calls of active or inactive are those of the source. The rule behind the calls is not given here.

Tests used:
T47D [1] = assay: cells; conditions: Homo sapiens, 72 h
Mus musculus [2] = assay: In vivo protac activity at VHL/ERalpha in BALB/c nude mouse xenografted with human ER-positive tamoxifen-resistant LCC2 cells assessed as reduction in ERalpha protein levels in tumor at 5 micromol/kg, ip administered once every 2 days by Western blot analysis; assay type: functional, organism-based; conditions: dose 5.0 µmol/kg
[3] = target: T1, von Hippel-Lindau disease tumor suppressor/Estrogen receptor (Homo sapiens) (UniProt P03372+P40337); assay: PROTAC activity at VHL/ERalpha in ER-positive human tamoxifen-resistant LCC2 cells assessed as induction of ERalpha degradation at 2 uM incubated for 12 hrs by Western blot analysis; assay type: cell-based; conditions: tamoxifen-resistant LCC2 cell
MCF7 [4] = assay: Induction of apoptosis in human MCF7 cells at 1 to 10 uM incubated for 24 hrs by Annexin V-FITC/PI staining based analysis; assay type: functional, cell-based; conditions: dose 1-10 µM
T47D [5] = assay: Inhibition of gene transcription in human T47D cells assessed as reduction in H3K27ac levels in IGFBP4 promoter region by ChIP-seq analysis; assay type: functional, cell-based
[6] = target: von Hippel-Lindau disease tumor suppressor/Estrogen receptor beta (Homo sapiens) (UniProt Q92731+P40337); assay: PROTAC activity at VHL/ERbeta in human NCI-H1975 cells assessed as induction of ERbeta degradation at 1 to 10 uM incubated for 12 hrs by Western blot analysis; assay type: cell-based; conditions: dose 1-10 µM
cells = conditions: Homo sapiens, Tamoxifen-resistant LCC2 cell, 72 h
[7] = target: T1, von Hippel-Lindau disease tumor suppressor/Estrogen receptor (Homo sapiens); assay: PROTAC activity at VHL/ERalpha in ER-positive human MCF7 cells assessed as induction of ERalpha degradation at 0.01 to 10 uM incubated for 12 hrs by Western blot analysis; assay type: cell-based; conditions: dose 0.01-10 µM
Estrogen receptor beta [8] = target: T2, Estrogen receptor beta (Homo sapiens, UniProt Q92731); assay: Binding affinity to ERbeta (unknown origin) assessed as relative binding affinity incubated for 2 hrs by fluorescence polarization assay relative to estradiol
[9] = target: T3, Estrogen receptor (Homo sapiens) (UniProt P03372); assay: Inhibition of ERalpha binding to DNA in human T47D cells assessed as reduction in protein occupancy incubated for 6 hrs by ChIP-seq analysis; assay type: cell-based
T3 sequence (whole entry): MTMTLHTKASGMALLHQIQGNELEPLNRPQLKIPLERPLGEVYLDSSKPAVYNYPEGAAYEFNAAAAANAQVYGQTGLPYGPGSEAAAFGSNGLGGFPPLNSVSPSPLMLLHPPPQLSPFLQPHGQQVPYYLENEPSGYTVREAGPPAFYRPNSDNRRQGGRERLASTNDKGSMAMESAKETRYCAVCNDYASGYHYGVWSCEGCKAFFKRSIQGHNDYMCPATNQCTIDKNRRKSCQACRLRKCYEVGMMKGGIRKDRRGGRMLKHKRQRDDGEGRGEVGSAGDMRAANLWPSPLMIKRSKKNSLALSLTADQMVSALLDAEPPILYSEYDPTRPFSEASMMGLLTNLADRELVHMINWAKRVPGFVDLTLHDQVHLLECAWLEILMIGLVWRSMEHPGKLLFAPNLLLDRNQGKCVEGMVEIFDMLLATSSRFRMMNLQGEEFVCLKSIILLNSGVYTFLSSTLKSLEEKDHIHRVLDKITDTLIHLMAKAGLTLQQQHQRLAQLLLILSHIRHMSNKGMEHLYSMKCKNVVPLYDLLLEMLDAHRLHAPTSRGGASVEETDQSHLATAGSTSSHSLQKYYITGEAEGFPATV

Estrogen receptor beta [10] = target: T2, Estrogen receptor beta
T47D [11] = assay: Inhibition of gene transcription in human T47D cells assessed as reduction in Pol II occupancy at GREB1 promoter region by ChIP-seq analysis; assay type: functional, cell-based
[12] = test system: tamoxifen-resistant LCC2 cell; assay: Antitumor activity against human ER-positive tamoxifen-resistant LCC2 cells xenografted in BALB/c nude mouse assessed as reduction in tumor growth at 5 micromol/kg, ip administered once every 2 days and measured every 2 days; assay type: functional, organism-based; conditions: dose 5.0 µmol/kg
T47D [13] = assay: Inhibition of nascent GREB1 RNA synthesis in human T47D cells incubated for 6 hrs by 4-thiouridine incorporation assay; assay type: functional, cell-based
in vitro = conditions: human, MCF-10A cells
[14] = Selectivity index, ratio of Ki for ERalpha (unknown origin) to Ki for ERbeta (unknown origin)
[15] = target: T1, von Hippel-Lindau disease tumor suppressor/Estrogen receptor (Homo sapiens); assay: PROTAC activity at VHL/wild type ERalpha in ER-positive human MCF7 cells assessed as induction of ERalpha degradation at 1 uM incubated for 12 hrs by Western blot analysis; assay type: cell-based
MCF7 [16] = assay: Induction of cell cycle arrest in human MCF7 cells at 1 to 10 uM incubated for 24 hrs; assay type: functional, cell-based; conditions: dose 1-10 µM
MCF7 [17] = assay: cells; conditions: Homo sapiens, MCF7, 72 h
T47D [18] = assay: cells; conditions: Homo sapiens, 72 h; remark: listed apart in the source
MDA-MB-231 = assay: cells; conditions: Homo sapiens, MDA-MB-231, 72 h
[19] = Selectivity ratio of relative binding affinity for ERalpha (unknown origin) to relative binding affinity to ERbeta (unknown origin)
T47D [20] = assay: Inhibition of nascent IGFBP4 RNA synthesis in human T47D cells incubated for 6 hrs by 4-thiouridine incorporation assay; assay type: functional, cell-based
Estrogen receptor = target: T4, Estrogen receptor (Homo sapiens, UniProt P03372)
T4 sequence (P03372 whole entry): T3 sequence (whole entry)

T47D [21] = assay: Inhibition of gene transcription in human T47D cells assessed as reduction in Pol II occupancy at IGFBP4 promoter region by ChIP-seq analysis; assay type: functional, cell-based
T47D [22] = assay: cells; conditions: Homo sapiens, 72 h; remark: listed apart in the source
T47D [23] = assay: Inhibition of gene transcription in human T47D cells assessed as reduction in H3K27ac levels in GREB1 promoter region by ChIP-seq analysis; assay type: functional, cell-based
[24] = target: T1, von Hippel-Lindau disease tumor suppressor/Estrogen receptor (Homo sapiens); assay: PROTAC activity at VHL/wild type ERalpha in ER-positive human T47D cells assessed as induction of ERalpha degradation at 2 uM incubated for 12 hrs by Western blot analysis; assay type: cell-based
[25] = target: T1, von Hippel-Lindau disease tumor suppressor/Estrogen receptor (Homo sapiens); assay: PROTAC activity at VHL/ERalpha in ER-positive human MCF7 cells assessed as induction of ERalpha degradation at 1 uM incubated for 12 hrs in presence of (2S,4R)-1-[(2S)-2-amino-3,3-dimethylbutanoyl]-4-hydroxy-N-[(1S)-1-[4-(4-methyl-1,3-thiazol-5-yl)phenyl]ethyl]pyrrolidine-2-carboxamide by Western blot analysis; assay type: cell-based
MCF7 [26] = assay: Antitumor activity against human tamoxifen-sensitive MCF7 cells xenografted in BALB/c nude mouse assessed as inhibition of tumor growth at 1 to 10 micromol/kg, ip administered once every 2 days and measured every 2 days; assay type: functional, organism-based; conditions: dose 1-10 µmol/kg
[27] = Toxicity in BALB/c nude mouse xenografted with human tamoxifen-sensitive MCF7 cells assessed as pathological changes in kidney at 1 to 10 micromol/kg, ip administered once every 2 days by H and E staining based assay; assay type: organism-based; conditions: in vivo, 48 h, dose 1-10 µmol/kg
[28] = Toxicity in BALB/c nude mouse xenografted with human tamoxifen-sensitive MCF7 cells assessed as mortality at 1 to 10 micromol/kg, ip administered once every 2 days and measured every 2 days; assay type: organism-based; conditions: in vivo, 48 h, dose 1-10 µmol/kg
[29] = target: T1, von Hippel-Lindau disease tumor suppressor/Estrogen receptor (Homo sapiens); assay: PROTAC activity at VHL/ERalpha in ER-positive human MCF7 cells assessed as induction of ERalpha degradation at 1 uM incubated for 12 hrs in presence of N-ethyl-5,6-bis(4-hydroxyphenyl)-N-(4-methoxyphenyl)-7-oxabicyclo[2.2.1]hept-5-ene-2-sulfonamide by Western blot analysis; assay type: cell-based
[30] = Toxicity in BALB/c nude mouse xenografted with human tamoxifen-sensitive MCF7 cells assessed as pathological changes in liver at 1 to 10 micromol/kg, ip administered once every 2 days by H and E staining based assay; assay type: organism-based; conditions: in vivo, 48 h, dose 1-10 µmol/kg
[31] = Toxicity in BALB/c nude mouse xenografted with human tamoxifen-sensitive MCF7 cells assessed as pathological changes in heart at 1 to 10 micromol/kg, ip administered once every 2 days by H and E staining based assay; assay type: organism-based; conditions: in vivo, 48 h, dose 1-10 µmol/kg
MCF7 [32] = assay: Antitumor activity against human tamoxifen-sensitive MCF7 cells xenografted in BALB/c nude mouse assessed as increase in tumor necrosis area at 5 micromol/kg, ip administered once every 2 days by […] staining based analysis; assay type: functional, organism-based; conditions: dose 5.0 µmol/kg
Mus musculus [33] = assay: In vivo protac activity at VHL/ERalpha in BALB/c nude mouse xenografted with human tamoxifen-sensitive MCF7 cells assessed as reduction in ERalpha protein levels in tumor at 1 to 10 micromol/kg, ip administered once every 2 days by Western blot analysis; assay type: functional, organism-based; conditions: dose 1-10 µmol/kg
MCF7 [34] = assay: Antitumor activity against human tamoxifen-sensitive MCF7 cells xenografted in BALB/c nude mouse assessed as reduction in cell proliferation at 5 micromol/kg, ip administered once every 2 days by ki67 staining based analysis; assay type: functional, organism-based; conditions: dose 5.0 µmol/kg
[35] = target: T1, von Hippel-Lindau disease tumor suppressor/Estrogen receptor (Homo sapiens); assay: PROTAC activity at VHL/ERalpha in ER-positive human MCF7 cells assessed as induction of ERalpha degradation at 1 uM incubated for 12 hrs in presence of proteasome inhibitor, MG132 by Western blot analysis; assay type: cell-based
[36] = Toxicity in BALB/c nude mouse xenografted with human tamoxifen-sensitive MCF7 cells assessed as reduction in body weight at 1 to 10 micromol/kg, ip administered once every 2 days and measured every 2 days; assay type: organism-based; conditions: in vivo, 48 h, dose 1-10 µmol/kg

T2 sequence (Q92731 whole entry): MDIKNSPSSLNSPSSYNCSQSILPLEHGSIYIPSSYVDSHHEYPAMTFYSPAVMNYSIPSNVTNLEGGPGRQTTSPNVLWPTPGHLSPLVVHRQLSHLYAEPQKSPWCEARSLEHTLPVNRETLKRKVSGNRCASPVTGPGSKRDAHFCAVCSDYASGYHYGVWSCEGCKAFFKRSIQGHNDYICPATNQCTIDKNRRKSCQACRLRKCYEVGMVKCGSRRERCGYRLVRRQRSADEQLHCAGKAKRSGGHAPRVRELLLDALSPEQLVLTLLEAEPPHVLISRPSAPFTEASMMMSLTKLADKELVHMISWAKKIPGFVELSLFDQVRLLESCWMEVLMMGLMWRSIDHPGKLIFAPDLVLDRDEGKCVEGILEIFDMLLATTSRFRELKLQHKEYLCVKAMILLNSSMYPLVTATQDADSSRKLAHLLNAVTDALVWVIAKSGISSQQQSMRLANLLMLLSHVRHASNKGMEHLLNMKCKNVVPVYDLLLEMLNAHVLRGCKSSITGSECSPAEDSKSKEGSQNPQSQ
T1 sequence (P40337 whole entry, looked up, one chain of several): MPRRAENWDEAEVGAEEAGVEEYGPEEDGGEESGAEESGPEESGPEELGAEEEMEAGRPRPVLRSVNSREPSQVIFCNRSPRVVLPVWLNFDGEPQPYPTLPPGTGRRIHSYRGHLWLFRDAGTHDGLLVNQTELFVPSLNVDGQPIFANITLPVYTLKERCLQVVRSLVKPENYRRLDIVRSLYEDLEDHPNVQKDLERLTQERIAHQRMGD
Chain of von Hippel-Lindau disease tumor suppressor/Estrogen receptor beta (Homo sapiens) (P40337 whole entry, looked up): as the sequence (P40337 whole entry, looked up, one chain of several) above
Chain of von Hippel-Lindau disease tumor suppressor/Estrogen receptor beta (Homo sapiens) (Q92731 whole entry, looked up): as the sequence (Q92731 whole entry) above

SMILES | IC50 (T47D [1]) | Activity [3] | Activity (MCF7 [4]) | inhibition (T47D [5]) | Activity [6] | IC50 (cells) | Activity [7] | RBA (Estrogen receptor beta [8]) | inhibition [9] | Ki (Estrogen receptor beta [10]) | inhibition (T47D [11]) | Activity [12] | inhibition (T47D [13]) | IC50 at 72 h (in vitro) | Ratio Ki [14] | Activity [15] | Activity (MCF7 [16]) | IC50 (MCF7 [17]) | IC50 (T47D [18]) | IC50 (MDA-MB-231) | further results
Cc1ncsc1-c1ccc([C@H](C)NC(=O)[C@@H]2C[C@@H](O)CN2C(=O)[C@@H](NC(=O)CCCCCOc2ccc(N(CC(F)(F)F)S(=O)(=O)C3CC4OC3C(c3ccc(O)cc3)=C4c3ccc(O)cc3)cc2)C(C)(C)C)cc1 (some centres not stated) | 1.35 µM | Active | Active | Active | inactive | 4.17 µM | Active | 0.03% | Active | 26.2 µM | Active | Active | Active | 7.69 µM | 5.16 | Active | Active | 0.05 µM | 1.51 µM | > 100 µM | Activity (Mus musculus [2]): Active; Selectivity ratio [19]: 1.33; inhibition (T47D [20]): Active; Ki (Estrogen receptor): 5.08 µM; inhibition (T47D [21]): Active; IC50 (T47D [22]): 1.26 µM; inhibition (T47D [23]): Active; Activity [24]: Active
CCN(c1ccc(OCCCCCC(=O)N[C@H](C(=O)N2C[C@H](O)C[C@H]2C(=O)N[C@@H](C)c2ccc(-c3scnc3C)cc2)C(C)(C)C)cc1)S(=O)(=O)C1CC2OC1C(c1ccc(O)cc1)=C2c1ccc(O)cc1 (some centres not stated) | 7.51 µM | Active | Active | Active | inactive | 12.3 µM | Active | 0.06% | Active | 13.1 µM | Active | Active | Active | > 100 µM | 5.16 | Active | Active | 0.31 µM | 9.52 µM | > 100 µM | Activity [25]: inactive; inhibition (MCF7 [26]): Active; Activity [27]: Non-Toxic; Activity [28]: Non-Toxic; Activity [29]: inactive; Activity [30]: Non-Toxic; Activity [31]: Non-Toxic; Activity (MCF7 [32]): Active; Activity (Mus musculus [33]): Active; Activity (MCF7 [34]): Active; Activity [35]: inactive; Selectivity ratio [19]: 1.33; inhibition (T47D [20]): Active; Ki (Estrogen receptor): 2.54 µM; inhibition (T47D [21]): Active; Activity [36]: Non-Toxic; IC50 (T47D [22]): 8.12 µM; inhibition (T47D [23]): Active; Activity [24]: Active
